In PubChem BioAssay (NCI):
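1) Cells in 96-well plates. 2) Compound, 48 h, 5 concentrations. 3) Linear interpolation between surrounding doses. 4) Unreached endpoint = highest concentration. GI50 is the concentration that inhibits growth by half. TGI denotes the concentration required for complete inhibition of growth.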

Columns and labels:
Assay in all cases: NCI-60 cell line screen, 48 h
786-0 renal = test system: 786-0 renal
BT-549 breast = test system: BT-549 breast
CAKI-1 renal = test system: CAKI-1 renal
HL-60(TB) leukemia = test system: HL-60(TB) leukemia
HOP-92 NSCLC = test system: HOP-92 NSCLC
HS 578T breast = test system: HS 578T breast
IGROV1 ovarian = test system: IGROV1 ovarian
MDA-MB-231 breast = test system: MDA-MB-231 breast
NCI-H23 lung = test system: NCI-H23 lung
OVCAR-4 ovarian = test system: OVCAR-4 ovarian
OVCAR-8 ovarian = test system: OVCAR-8 ovarian
PC-3 prostate = test system: PC-3 prostate
RPMI-8226 leukemia = test system: RPMI-8226 leukemia
SF-295 CNS = test system: SF-295 CNS
SK-MEL-2 melanoma = test system: SK-MEL-2 melanoma
SK-OV-3 ovarian = test system: SK-OV-3 ovarian
TK-10 renal = test system: TK-10 renal
A498 renal = test system: A498 renal
A549 NSCLC = test system: A549 NSCLC
ACHN renal = test system: ACHN renal
CCRF-CEM leukemia = test system: CCRF-CEM leukemia
COLO 205 colon = test system: COLO 205 colon
DU-145 prostate = test system: DU-145 prostate
EKVX NSCLC = test system: EKVX NSCLC
HCC-2998 colon = test system: HCC-2998 colon
HCT-116 colon = test system: HCT-116 colon
HCT-15 colon = test system: HCT-15 colon
HOP-62 NSCLC = test system: HOP-62 NSCLC
HT29 colon = test system: HT29 colon
K-562 leukemia = test system: K-562 leukemia
KM12 colon = test system: KM12 colon
LOX IMVI melanoma = test system: LOX IMVI melanoma
M14 melanoma = test system: M14 melanoma
MALME-3M melanoma = test system: MALME-3M melanoma
MCF7 breast = test system: MCF7 breast
MOLT-4 leukemia = test system: MOLT-4 leukemia
NCI-H226 lung = test system: NCI-H226 lung
NCI-H460 lung = test system: NCI-H460 lung
NCI-H522 lung = test system: NCI-H522 lung
NCI/ADR-RES ovarian = test system: NCI/ADR-RES ovarian
OVCAR-3 ovarian = test system: OVCAR-3 ovarian
OVCAR-5 ovarian = test system: OVCAR-5 ovarian
RXF 393 renal = test system: RXF 393 renal
SF-268 CNS = test system: SF-268 CNS
SF-539 CNS = test system: SF-539 CNS
SK-MEL-28 melanoma = test system: SK-MEL-28 melanoma
SK-MEL-5 melanoma = test system: SK-MEL-5 melanoma
SN12C renal = test system: SN12C renal
SNB-19 CNS = test system: SNB-19 CNS
SNB-75 CNS = test system: SNB-75 CNS
SR leukemia = test system: SR leukemia
SW-620 colon = test system: SW-620 colon
T-47D breast = test system: T-47D breast
U251 CNS = test system: U251 CNS
UACC-257 melanoma = test system: UACC-257 melanoma
UACC-62 melanoma = test system: UACC-62 melanoma
UO-31 renal = test system: UO-31 renal

CCN(CC)c1ccc2nc3ccc(N=Nc4ccc(N(C)C)cc4)cc3[n+](-c3ccccc3)c2c1
GI50 (786-0 renal): 0.247 µM
TGI (786-0 renal): 2.39 µM
GI50 (BT-549 breast): 0.424 µM
TGI (BT-549 breast): 2.57 µM
GI50 (CAKI-1 renal): 0.146 µM
TGI (CAKI-1 renal): 0.434 µM
GI50 (HL-60(TB) leukemia): 0.0739 µM
TGI (HL-60(TB) leukemia): 0.89 µM
GI50 (HOP-92 NSCLC): 0.17 µM
TGI (HOP-92 NSCLC): 0.811 µM
GI50 (HS 578T breast): 0.448 µM
TGI (HS 578T breast): > 100 µM
GI50 (IGROV1 ovarian): 0.0934 µM
TGI (IGROV1 ovarian): 1.53 µM
GI50 (MDA-MB-231 breast): 0.0831 µM
TGI (MDA-MB-231 breast): 0.426 µM
GI50 (NCI-H23 lung): 0.0809 µM
TGI (NCI-H23 lung): 1.37 µM
GI50 (OVCAR-4 ovarian): 0.0243 µM
TGI (OVCAR-4 ovarian): 0.0929 µM
GI50 (OVCAR-8 ovarian): 0.11 µM
TGI (OVCAR-8 ovarian): 1.48 µM
GI50 (PC-3 prostate): 0.156 µM
TGI (PC-3 prostate): 2.56 µM
GI50 (RPMI-8226 leukemia): 0.0314 µM
TGI (RPMI-8226 leukemia): 1.35 µM
GI50 (SF-295 CNS): 0.0376 µM
TGI (SF-295 CNS): 0.191 µM
GI50 (SK-MEL-2 melanoma): 0.369 µM
TGI (SK-MEL-2 melanoma): 2.05 µM
GI50 (SK-OV-3 ovarian): 0.39 µM
TGI (SK-OV-3 ovarian): 13.7 µM
GI50 (TK-10 renal): 0.389 µM
TGI (TK-10 renal): 2.1 µM

COc1cc2c(c(OC)c1OC)-c1ccc(NN(C(=O)c3ccccc3)C(=O)c3ccccc3)c(=O)cc1[C@@H](NC(C)=O)CC2 (tested in a mixture with another compound)
GI50 (786-0 renal): 3.31 µM
TGI (786-0 renal): 13.4 µM
GI50 (A498 renal): 3.78 µM
TGI (A498 renal): 52 µM
GI50 (A549 NSCLC): 4.02 µM
TGI (A549 NSCLC): > 100 µM
GI50 (ACHN renal): 4.27 µM
TGI (ACHN renal): 24.8 µM
GI50 (BT-549 breast): 2.63 µM
TGI (BT-549 breast): 8.15 µM
GI50 (CAKI-1 renal): 4.62 µM
TGI (CAKI-1 renal): 47.1 µM
GI50 (CCRF-CEM leukemia): 3.57 µM
TGI (CCRF-CEM leukemia): > 100 µM
GI50 (COLO 205 colon): 3.02 µM
TGI (COLO 205 colon): 12.2 µM
GI50 (DU-145 prostate): 3.3 µM
TGI (DU-145 prostate): > 100 µM
GI50 (EKVX NSCLC): 8.09 µM
TGI (EKVX NSCLC): > 100 µM
GI50 (HCC-2998 colon): 3.23 µM
TGI (HCC-2998 colon): 12.7 µM
GI50 (HCT-116 colon): 2.95 µM
TGI (HCT-116 colon): 8.88 µM
GI50 (HCT-15 colon): 3.64 µM
TGI (HCT-15 colon): 14.9 µM
GI50 (HL-60(TB) leukemia): 2.1 µM
TGI (HL-60(TB) leukemia): 14.7 µM
GI50 (HOP-62 NSCLC): 4.54 µM
TGI (HOP-62 NSCLC): 30.3 µM
GI50 (HOP-92 NSCLC): 3.84 µM
TGI (HOP-92 NSCLC): > 100 µM
GI50 (HS 578T breast): 1.9 µM
TGI (HS 578T breast): 6.3 µM
GI50 (HT29 colon): 2.93 µM
TGI (HT29 colon): 11.1 µM
GI50 (IGROV1 ovarian): 4.6 µM
TGI (IGROV1 ovarian): 63 µM
GI50 (K-562 leukemia): 4.03 µM
TGI (K-562 leukemia): > 100 µM
GI50 (KM12 colon): 3.63 µM
TGI (KM12 colon): 25.7 µM
GI50 (LOX IMVI melanoma): 4.24 µM
TGI (LOX IMVI melanoma): 16.5 µM
GI50 (M14 melanoma): 2.36 µM
TGI (M14 melanoma): 6.45 µM
GI50 (MALME-3M melanoma): 17.6 µM
TGI (MALME-3M melanoma): > 100 µM
GI50 (MCF7 breast): 3.84 µM
TGI (MCF7 breast): > 100 µM
GI50 (MDA-MB-231 breast): 3.39 µM
TGI (MDA-MB-231 breast): > 100 µM
GI50 (MOLT-4 leukemia): 4.08 µM
TGI (MOLT-4 leukemia): > 100 µM
GI50 (NCI-H226 lung): 10.6 µM
TGI (NCI-H226 lung): 37.4 µM
GI50 (NCI-H23 lung): 3.91 µM
TGI (NCI-H23 lung): 37.6 µM
GI50 (NCI-H460 lung): 2.98 µM
TGI (NCI-H460 lung): 11.2 µM
GI50 (NCI-H522 lung): 2.01 µM
TGI (NCI-H522 lung): 6.18 µM
GI50 (NCI/ADR-RES ovarian): 4.37 µM
TGI (NCI/ADR-RES ovarian): > 100 µM
GI50 (OVCAR-3 ovarian): 2.8 µM
TGI (OVCAR-3 ovarian): 13.4 µM
GI50 (OVCAR-4 ovarian): 7.06 µM
TGI (OVCAR-4 ovarian): > 100 µM
GI50 (OVCAR-5 ovarian): 3.95 µM
TGI (OVCAR-5 ovarian): > 100 µM
GI50 (OVCAR-8 ovarian): 3.86 µM
TGI (OVCAR-8 ovarian): 42.7 µM
GI50 (PC-3 prostate): 4.69 µM
TGI (PC-3 prostate): > 100 µM
GI50 (RPMI-8226 leukemia): 4.72 µM
TGI (RPMI-8226 leukemia): 82.5 µM
GI50 (RXF 393 renal): 2.24 µM
TGI (RXF 393 renal): 8 µM
GI50 (SF-268 CNS): 4.61 µM
TGI (SF-268 CNS): > 100 µM
GI50 (SF-295 CNS): 3.81 µM
TGI (SF-295 CNS): > 100 µM
GI50 (SF-539 CNS): 3.08 µM
TGI (SF-539 CNS): 10.5 µM
GI50 (SK-MEL-2 melanoma): 3.42 µM
TGI (SK-MEL-2 melanoma): 16.6 µM
GI50 (SK-MEL-28 melanoma): 8.76 µM
TGI (SK-MEL-28 melanoma): 29 µM
GI50 (SK-MEL-5 melanoma): 2.49 µM
TGI (SK-MEL-5 melanoma): 11 µM
GI50 (SK-OV-3 ovarian): 2.65 µM
TGI (SK-OV-3 ovarian): 8.77 µM
GI50 (SN12C renal): 5.38 µM
TGI (SN12C renal): > 100 µM
GI50 (SNB-19 CNS): 6.7 µM
TGI (SNB-19 CNS): > 100 µM
GI50 (SNB-75 CNS): 5.08 µM
TGI (SNB-75 CNS): > 100 µM
GI50 (SR leukemia): 3.76 µM
TGI (SR leukemia): > 100 µM
GI50 (SW-620 colon): 3.73 µM
TGI (SW-620 colon): 15.3 µM
GI50 (T-47D breast): 4.71 µM
TGI (T-47D breast): 42 µM
GI50 (TK-10 renal): 4.04 µM
TGI (TK-10 renal): 42.5 µM
GI50 (U251 CNS): 3.77 µM
TGI (U251 CNS): 21.3 µM
GI50 (UACC-257 melanoma): 14.4 µM
TGI (UACC-257 melanoma): 62.9 µM
GI50 (UACC-62 melanoma): 4.18 µM
TGI (UACC-62 melanoma): 42.1 µM
GI50 (UO-31 renal): 4.59 µM
TGI (UO-31 renal): 41.6 µM
